Literature values in US20250107560A1, “CHRONOBIOLOGICAL FOOD FOR INFANTS AND METHOD FOR PRODUCING SAME” (priority 2022, published 2025).

Experiments:
carrier albumin = carrier albumin (Homo sapiens, UniProt P02768); settings: compared with D-tryptophan
[1] = unlike D-tryptophan

Sequence of carrier albumin (P02768 25-609): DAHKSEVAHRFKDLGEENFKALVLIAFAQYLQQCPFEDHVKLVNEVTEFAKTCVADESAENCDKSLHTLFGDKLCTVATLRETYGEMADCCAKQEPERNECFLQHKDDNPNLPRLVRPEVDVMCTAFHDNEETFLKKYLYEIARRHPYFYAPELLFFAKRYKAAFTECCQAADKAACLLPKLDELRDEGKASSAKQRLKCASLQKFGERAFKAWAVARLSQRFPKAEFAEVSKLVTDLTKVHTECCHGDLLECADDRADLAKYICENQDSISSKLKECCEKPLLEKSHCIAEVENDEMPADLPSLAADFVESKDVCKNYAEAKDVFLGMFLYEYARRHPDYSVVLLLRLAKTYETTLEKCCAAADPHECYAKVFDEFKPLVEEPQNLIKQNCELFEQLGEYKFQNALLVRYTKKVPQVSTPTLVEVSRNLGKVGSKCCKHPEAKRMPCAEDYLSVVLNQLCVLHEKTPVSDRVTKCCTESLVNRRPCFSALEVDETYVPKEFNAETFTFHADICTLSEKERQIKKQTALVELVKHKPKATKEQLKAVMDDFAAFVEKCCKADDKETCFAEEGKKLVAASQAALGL

SMILES | biological half-life (in vivo) | excreted in the urine as 6-sulfatoxymelatonin (metabolized in the liver) | binding to the carrier albumin, relative to D-tryptophan (carrier albumin) | toxicity [1]
COc1ccc2[nH]cc(CCNC(C)=O)c2c1 [Melatonin, melatonin] | 30-45 minutes | approx. 95% | – | –
N[C@@H](Cc1c[nH]c2ccccc12)C(=O)O [L-tryptophan] | – | – | 100 times | non-toxic
